This experiment addresses α5β1 integrin (Homo sapiens, UniProt P05556+P08648). In words: In vitro binding assay (a): inhibition of binding of α5β1 integrin to fibronectin fragment Fn9-10 (Origen electrochemiluminescence). To be noted: recombinant human α5β1 vs Fn9-10 ligand; geometric mean where tested more than once. From the text: (a) In Vitro Binding Assay
The assay determined the ability of compounds to inhibit binding of α5β1 integrin to a cognate ligand, a fragment of human fibronectin. The assay used Origen technology (IGEN International) to measure the compound activity. Briefly, α5β1 integrin was coated onto epoxy-paramagnetic beads (Dynal Biotech UK, Bromborough, Wirral, CH62 3QL, UK, Catalogue No 140.11) and biotinylated-fibronectin ligand was coupled to strepatividin labeled Tag-NHS-Ester (BioVeris Corporation, Witney, Oxfordshire, OX28 4GE, UK, Catalogue No 110034). The ruthenium-labeled tag emits an electrochemiluminescence signal upon stimulation which is detected by the Origen reader. Thus, interaction of integrin and ligand causes association of bead and tag, and the resulting electrochemiluminescence signal reflects the level of integrin interaction with fibronectin.
20 μg of recombinant human α5β1 was coated onto 4×10(7) epoxy-paramagnetic beads according to manufacturers instructions at 4° C. for 24 hours. Integrin coating and corresponding activity was subsequently measured for each batch but typically, 25 ng of coated protein was used per assay well.
A DNA fragment encoding the domains 9-10 (amino-acids 1325-1509) of human fibronectin (Swiss-Prot Accession No. P02751) was isolated from cDNA libraries using standard molecular biology and PCR cloning techniques. The cDNA fragment was sub-cloned into a pT73.3 expression vector containing a GST-epitope tag (developed at AstraZeneca; Bagnall et al., Protein Expression and Purification, 2003, 27: 1-11). Following expression in E. coli, the expressed protein, termed Fn9-10, was purified using the GST-tag using standard purification techniques. The recombinant Fn9-10 was subsequently biotinylated using a EZ-link Sulfo-NHS-LC-Biotinylation kit (Perbio Science UK Ltd., Cramlington, Northumberland, NE23 1WA, UK, Catalogue No. 21335) and made to give a final concentration of approximately 1 mg/ml. Tag-NHS-Ester was labeled with streptavidin by incubation at room temperature following manufacturers instructions and buffer-exchanged into PBS to give a concentration of 0.5 mg/ ml. Immediately prior to the assay, biotinylated-Fn9-10 and Streptavidin-labeled Tag were diluted in Assay Buffer to give a final concentrations of 0.6 ug/ml and 1.5 ug/ml respectively. The Fn9-10 and Tag solutions were then mixed together in equal volumes and incubated on ice for at least 30 minutes prior to the assay.
Test compounds were prepared as 10 mM stock solutions in DMSO (Sigma-Aldrich Company Ltd, Gillingham, Dorset SP8 4XT Catalogue No. 154938) and serially diluted with 4% DMSO to give a range of test concentrations at ×4 required final concentration. Aliquots (20 μl) of each compound dilution were placed into each well of a 384-well round bottomed polypropylene plate (Matrix Technologies, Wilmslow, Cheshire, SK9 3LP, Catalogue No. 4340 384). Each plate also contained control wells: maximum signal was created using wells containing 20 μl of 4% DMSO, and minimum signal corresponding to no binding was created using wells containing 20 μl of 80 mM EDTA (Sigma Catalogue No. E7889).
For the assay, 25 ng(20 ul) of a5b1-bead suspension and 40 μl of the Fn9-10/Tag pre-incubated solution were added to each well containing 20 μl of compound or control solution. Assay plates were then incubated at room temperature for a minimum of 6 hours before being analysed on an Origen plate reader. The minimum value was subtracted from all values, and the signal was plotted against compound concentration to generate IC50 data.
The data in the above table was generated in an assay substantially as described above in relation to Binding Assay (a). Some of the compounds shown in the table were tested more than once in the assay. For those compounds the IC50 value shown is the geometric mean of the measured IC50 values. […]

Sequence of α5β1 integrin (P08648 42-894 limits assumed): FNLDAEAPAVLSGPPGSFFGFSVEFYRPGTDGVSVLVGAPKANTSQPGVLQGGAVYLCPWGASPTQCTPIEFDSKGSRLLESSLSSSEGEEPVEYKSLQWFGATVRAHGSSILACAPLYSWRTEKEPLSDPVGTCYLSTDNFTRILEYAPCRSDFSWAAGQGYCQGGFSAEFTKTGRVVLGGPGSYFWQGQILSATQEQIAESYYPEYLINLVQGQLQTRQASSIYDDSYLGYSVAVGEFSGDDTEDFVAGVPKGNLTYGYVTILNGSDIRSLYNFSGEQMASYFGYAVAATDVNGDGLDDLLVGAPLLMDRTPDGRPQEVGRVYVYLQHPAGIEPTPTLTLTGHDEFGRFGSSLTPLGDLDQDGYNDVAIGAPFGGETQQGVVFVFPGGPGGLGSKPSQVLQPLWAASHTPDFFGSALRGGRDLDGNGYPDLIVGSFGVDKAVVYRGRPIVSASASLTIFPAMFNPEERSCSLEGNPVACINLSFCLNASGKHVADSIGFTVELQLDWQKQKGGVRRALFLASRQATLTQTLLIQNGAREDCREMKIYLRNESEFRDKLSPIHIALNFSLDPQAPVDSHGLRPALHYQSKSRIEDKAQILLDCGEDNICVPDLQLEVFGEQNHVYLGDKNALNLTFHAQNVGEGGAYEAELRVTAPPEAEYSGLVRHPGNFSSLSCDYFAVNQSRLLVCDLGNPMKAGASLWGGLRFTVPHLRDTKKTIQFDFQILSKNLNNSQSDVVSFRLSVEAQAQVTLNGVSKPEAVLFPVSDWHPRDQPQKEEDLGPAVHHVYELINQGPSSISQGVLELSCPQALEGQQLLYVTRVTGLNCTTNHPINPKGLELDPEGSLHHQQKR
Sequence of α5β1 integrin (P08648 895-1049 partner limits assumed): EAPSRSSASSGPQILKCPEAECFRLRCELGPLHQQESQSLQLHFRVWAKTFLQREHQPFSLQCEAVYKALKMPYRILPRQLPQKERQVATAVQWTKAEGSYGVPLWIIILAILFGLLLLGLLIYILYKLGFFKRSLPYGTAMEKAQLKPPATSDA
Sequence of α5β1 integrin (P05556 21-798): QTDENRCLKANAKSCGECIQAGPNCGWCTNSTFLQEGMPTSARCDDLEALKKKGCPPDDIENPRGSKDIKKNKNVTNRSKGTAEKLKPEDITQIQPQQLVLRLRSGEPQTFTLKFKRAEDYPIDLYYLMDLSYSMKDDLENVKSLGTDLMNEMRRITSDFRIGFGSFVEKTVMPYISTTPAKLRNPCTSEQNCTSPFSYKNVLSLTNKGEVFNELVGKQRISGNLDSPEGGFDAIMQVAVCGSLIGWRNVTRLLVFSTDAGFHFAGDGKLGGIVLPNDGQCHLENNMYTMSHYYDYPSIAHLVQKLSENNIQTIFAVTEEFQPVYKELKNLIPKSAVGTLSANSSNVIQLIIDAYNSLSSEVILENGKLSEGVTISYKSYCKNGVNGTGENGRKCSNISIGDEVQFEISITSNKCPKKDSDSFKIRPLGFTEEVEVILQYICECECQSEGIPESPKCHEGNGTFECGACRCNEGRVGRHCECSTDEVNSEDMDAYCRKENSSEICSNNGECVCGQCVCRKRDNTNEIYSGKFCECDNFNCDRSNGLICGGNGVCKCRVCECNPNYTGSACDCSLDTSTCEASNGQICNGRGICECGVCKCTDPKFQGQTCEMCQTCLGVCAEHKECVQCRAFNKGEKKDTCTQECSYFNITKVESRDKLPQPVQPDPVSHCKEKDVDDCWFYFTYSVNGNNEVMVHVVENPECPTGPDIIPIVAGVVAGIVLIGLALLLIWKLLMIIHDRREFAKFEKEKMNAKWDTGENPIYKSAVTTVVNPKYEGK

Regarding `CNc1cccc(CCOc2ccc(C[C@H](NC(=O)C3(C)CCCCC3)C(=O)O)cc2)n1` [Example 1.1, O-{2-[6-(methylamino)pyridin-2-yl]ethyl}-N-[(1-methylcyclohexyl)carbonyl]-L-tyrosine], the 50% inhibitory concentration (IC50) was 5 nM. Under `CNc1cccc(CCOc2ccc(C[C@H](NC(=O)C3CCCCC3C)C(=O)O)cc2)n1` (stereo partly drawn) [Example 1.2, O-{2-[6-(methylamino)pyridin-2-yl]ethyl}-N-[(2-methylcyclohexyl)carbonyl]-L-tyrosine] stands 7 nM; under `CNc1cccc(CCOc2ccc(C[C@H](NC(=O)[C@H](C)OC)C(=O)O)cc2)n1` [Example 1.3, N-[(2S)-2-methoxypropanoyl]-O-{2-[6-(methylamino)pyridin-2-yl]ethyl}-L-tyrosine], 22 nM; under `CNc1cccc(CCOc2ccc(C[C@H](NC(=O)[C@H](CC(C)C)NC(=O)c3ccccc3)C(=O)O)cc2)n1` [Example 1.4, N-benzoylleucyl-O-{2-[6-(methylamino)pyridin-2-yl]ethyl}-L-tyrosine], 66 nM. `CNc1cccc(CCOc2ccc(C[C@H](NC(=O)C(C)(C)C(=O)N3CCCC3)C(=O)O)cc2)n1` [Example 1.5, N-(2,2-dimethyl-3-oxo-3-pyrrolidin-1-ylpropanoyl)-O-{2-[6-(methylamino)pyridin-2-yl]ethyl}-L-tyrosine]: the IC50 is 2 nM. Consider `CNc1cccc(CCOc2ccc(C[C@H](NC(=O)C3(O)CC3)C(=O)O)cc2)n1` [Example 1.6, N-[(1-hydroxycyclopropyl)carbonyl]-O-{2-[6-(methylamino)pyridin-2-yl]ethyl}-L-tyrosine], for which the IC50 stood at 958 nM.

As to `CNc1cccc(CCOc2ccc(C[C@H](NC(=O)C3(OC)CCOCC3)C(=O)O)cc2)n1` [Example 1.7, N-[(4-methoxytetrahydro-2H-pyran-4-yl)carbonyl]-O-{2-[6-(methylamino)pyridin-2-yl]ethyl}-L-tyrosine], the IC50 came out at 4 nM. With `CC#CC(=O)N[C@@H](Cc1ccc(OCCc2cccc(NC)n2)cc1)C(=O)O` [Example 1.8, N-but-2-ynoyl-O-{2-[6-(methylamino)pyridin-2-yl]ethyl}-L-tyrosine] the figure was 363 nM; with `CCC(=O)N[C@@H](Cc1ccc(OCCc2cccc(NC)n2)cc1)C(=O)O` [Example 1.9, O-{2-[6-(methylamino)pyridin-2-yl]ethyl}-N-propionyl-L-tyrosine], 116 nM. With `CCCCCC(=O)N[C@@H](Cc1ccc(OCCc2cccc(NC)n2)cc1)C(=O)O` [Example 1.10, N-hexanoyl-O-{2-[6-(methylamino)pyridin-2-yl]ethyl}-L-tyrosine], the IC50 is 179 nM. In the case of `CNc1cccc(CCOc2ccc(C[C@H](NC(=O)C(C)C)C(=O)O)cc2)n1` [Example 1.11, N-isobutyryl-O-{2-[6-(methylamino)pyridin-2-yl]ethyl}-L-tyrosine], the IC50 was 73 nM. Under `CCCCC(CC)C(=O)N[C@@H](Cc1ccc(OCCc2cccc(NC)n2)cc1)C(=O)O` (stereo partly drawn) [Example 1.12, N-(2-ethylhexanoyl)-O-{2-[6-(methylamino)pyridin-2-yl]ethyl}-L-tyrosine] stands 8 nM; under `CNc1cccc(CCOc2ccc(C[C@H](NC(=O)C(C)(C)C)C(=O)O)cc2)n1` [Example 1.13, N-(2,2-dimethylpropanoyl)-O-{2-[6-(methylamino)pyridin-2-yl]ethyl}-L-tyrosine], 34 nM; under `CNc1cccc(CCOc2ccc(C[C@H](NC(=O)C3CCCCCC3)C(=O)O)cc2)n1` [Example 1.14, N-(cycloheptylcarbonyl)-O-{2-[6-(methylamino)pyridin-2-yl]ethyl}-L-tyrosine], 7 nM. Turning to `CNc1cccc(CCOc2ccc(C[C@H](NC(=O)C3CCCCC3)C(=O)O)cc2)n1` [Example 1.15, N-(cyclohexylcarbonyl)-O-{2-[6-(methylamino)pyridin-2-yl]ethyl}-L-tyrosine], the 50% inhibitory concentration (IC50) came out at 32 nM.

Take `CNc1cccc(CCOc2ccc(C[C@H](NC(=O)C3CCCC3)C(=O)O)cc2)n1` [Example 1.16, N-(cyclopentylcarbonyl)-O-{2-[6-(methylamino)pyridin-2-yl]ethyl}-L-tyrosine]: the IC50 came out at 9 nM. With `CNc1cccc(CCOc2ccc(C[C@H](NC(=O)C3CCC3)C(=O)O)cc2)n1` [Example 1.17, N-(cyclobutylcarbonyl)-O-{2-[6-(methylamino)pyridin-2-yl]ethyl}-L-tyrosine], the 50% inhibitory concentration (IC50) amounted to 49 nM. With `CNc1cccc(CCOc2ccc(C[C@H](NC(=O)C3CC3)C(=O)O)cc2)n1` [Example 1.18, N-(cyclopropylcarbonyl)-O-{2-[6-(methylamino)pyridin-2-yl]ethyl}-L-tyrosine] the figure was 608 nM.

Take `CNc1cccc(CCOc2ccc(C[C@H](NC(=O)[C@@H](C)OC)C(=O)O)cc2)n1` [Example 1.19, N-[(2R)-2-methoxypropanoyl]-O-{2-[6-(methylamino)pyridin-2-yl]ethyl}-L-tyrosine]: the half-inhibitory concentration (IC50) was 29 nM.

`CNc1cccc(CCOc2ccc(C[C@H](NC(=O)C3(CO)CCOCC3)C(=O)O)cc2)n1` [Example 1.20, N-{[4-(hydroxymethyl)tetrahydro-2H-pyran-4-yl]carbonyl}-O-{2-[6-(methylamino)pyridin-2-yl]ethyl}-L-tyrosine]: the IC50 stood at 32 nM. With `CNc1cccc(CCOc2ccc(C[C@H](NC(=O)CCc3ccccc3)C(=O)O)cc2)n1` [Example 1.21, O-{2-[6-(methylamino)pyridin-2-yl]ethyl}-N-(3-phenylpropanoyl)-L-tyrosine] the figure was 45 nM. As for `CNc1cccc(CCOc2ccc(C[C@H](NC(=O)Cc3ccccc3)C(=O)O)cc2)n1` [Example 1.22, O-{2-[6-(methylamino)pyridin-2-yl]ethyl}-N-(phenylacetyl)-L-tyrosine], the half-inhibitory concentration (IC50) is 215 nM. As to `CNc1cccc(CCOc2ccc(C[C@H](NC(=O)C(O)c3ccccc3)C(=O)O)cc2)n1` (stereo partly drawn) [Example 1.23, N-[hydroxy(phenyl)acetyl]-O-{2-[6-(methylamino)pyridin-2-yl]ethyl}-L-tyrosine], the IC50 was determined as 837 nM.

As for `CNc1cccc(CCOc2ccc(C[C@H](NC(=O)C(c3ccccc3)c3ccccc3)C(=O)O)cc2)n1` [Example 1.24, N-(diphenylacetyl)-O-{2-[6-(methylamino)pyridin-2-yl]ethyl}-L-tyrosine], the half-maximal inhibitory concentration (IC50) amounted to 45 nM.

In the case of `CNc1cccc(CCOc2ccc(C[C@H](NC(=O)Cc3ccccn3)C(=O)O)cc2)n1` [Example 1.25, O-{2-[6-(methylamino)pyridin-2-yl]ethyl}-N-(pyridin-2-ylacetyl)-L-tyrosine], the IC50 was 235 nM. Under `CNc1cccc(CCOc2ccc(C[C@H](NC(=O)Cc3cccnc3)C(=O)O)cc2)n1` [Example 1.26, O-{2-[6-(methylamino)pyridin-2-yl]ethyl}-N-(pyridin-3-ylacetyl)-L-tyrosine] stands 525 nM; under `CNc1cccc(CCOc2ccc(C[C@H](NC(=O)Cc3ccncc3)C(=O)O)cc2)n1` [Example 1.27, O-{2-[6-(methylamino)pyridin-2-yl]ethyl}-N-(pyridin-4-ylacetyl)-L-tyrosine], 287 nM. Turning to `CC1(C(=O)N[C@@H](Cc2ccc(OCCc3ccc4c(n3)NCCC4)cc2)C(=O)O)CCCCC1` [Example 2.1, N-[(1-methylcyclohexyl)carbonyl]-O-[2-(5,6,7,8-tetrahydro-1,8-naphthyridin-2-yl)ethyl]-L-tyrosine], the concentration for half-maximal inhibition (IC50) is 1 nM.

The record behind these values is patent US20080182842A1, “L-alanine derivatives as a5beta1 antagonists” (ASTRAZENECA AB, priority 2007, published 2008).
